Test results as given in US6221865A, “Inhibitors of protein isoprenyl transferases” (priority 1998, dated 2001).
Structures can show the parent of a compound that is named as a salt.

Molecular target: T1, protein farnesyltransferase (Rattus norvegicus, UniProt Q02293+Q04631)
T1 construct: The enzyme is purified according to Reiss, Y., et al., Cell, 62: 81-88 (1990), utilizing steps one through three; from tissue; host or cells: rat brain
Experiment: Inhibition of farnesyltransferase (scintillation proximity assay, rat brain enzyme, biotin-K Ras B fragment substrate)
Assay type: biochemical
Conditions: for % inhibition of farnesyltransferase at 1 × 10^-7 M: 1 × 10^-7 M (Table 3); for % inhibition of farnesyltransferase at 1 × 10^-8 M: 1 × 10^-8 M (Table 4); for inhibition at 1 µM: read-out: % inhibition of farnesyltransferase at 1 × 10^-6 M; for inhibition at 1 µM / % inhibition of farnesyltransferase at 1 × 10^-6 M: 1 × 10^-6 M (Table 2); for % inhibition of farnesyltransferase at 1 × 10^-5 M: 1 × 10^-5 M (Table 1)
Summary of the method: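 Enzyme from rat brain, partly purified (steps one to three), assayed by SPA kit using 0.1 mM final biotin-K Ras B peptide as prenyl acceptor rather than biotin-lamin. Activity given as percent inhibition.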

T1 sequence (Q02293 whole entry, one chain of several): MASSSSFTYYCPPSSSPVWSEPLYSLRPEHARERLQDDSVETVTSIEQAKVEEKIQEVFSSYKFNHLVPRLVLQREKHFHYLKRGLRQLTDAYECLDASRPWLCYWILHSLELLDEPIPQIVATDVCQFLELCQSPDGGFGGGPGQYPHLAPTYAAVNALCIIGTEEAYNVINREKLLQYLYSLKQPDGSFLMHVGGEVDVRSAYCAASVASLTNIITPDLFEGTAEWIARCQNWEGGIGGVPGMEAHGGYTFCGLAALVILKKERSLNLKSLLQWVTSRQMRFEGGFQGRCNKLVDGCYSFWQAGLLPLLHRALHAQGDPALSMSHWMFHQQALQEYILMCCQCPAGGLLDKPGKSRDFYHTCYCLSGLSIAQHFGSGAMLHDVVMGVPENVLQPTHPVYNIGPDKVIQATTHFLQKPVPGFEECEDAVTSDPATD

Row | % inhibition of farnesyltransferase at 1 × 10^-7 M [%] | % inhibition of farnesyltransferase at 1 × 10^-6 M [%] | SMILES | further results
1 | 49 |  | CSCC[C@H](NC(=O)c1ccc(CSc2nnc(N)s2)cc1-c1ccccc1C)C(=O)O [Example 734] | 
2 |  |  | CCSC[C@H](CC1CCCCC1)N(C)Cc1ccc(C(=O)N[C@@H](CCSC)C(=O)O)c(-c2ccccc2C)c1 [Example 944] | % inhibition of farnesyltransferase at 1 × 10^-8 M: 88%
3 |  |  | CSCC[C@H](NC(=O)c1ccc(CN(Cc2ccccc2)c2ccc(SC)cc2)cc1-c1ccccc1C)C(=O)[O-].[Li+] [Example 852] | % inhibition of farnesyltransferase at 1 × 10^-8 M: 79%
4 |  |  | CSCC[C@H](NC(=O)c1ccc(/C=C/c2ccc(Oc3ccccc3)nn2)cc1-c1ccccc1C)C(=O)O [Example 810, N-[4-(2-(3-phenoxypyridazin-6-yl)ethen-1-yl)-2-(2-methylphenyl)benzoyl]methionine lithium salt] | inhibition at 1 µM: 89%
5 |  |  | CSCC[C@H](NC(=O)c1ccc(CNc2ccc(F)cc2)cc1-c1ccccc1)C(=O)O [Example 687] | % inhibition of farnesyltransferase at 1 × 10^-5 M: 78%
6 |  |  | Cc1ccccc1-c1cc(CN(C2CC2)C2(Cc3ccccc3)CCCC2)ccc1C(=O)N[C@@H](CCS(C)(=O)=O)C(=O)O [Example 345] | inhibition at 1 µM: 91%
7 |  |  | CSCC[C@H](NC(=O)c1ccc(/C=C/c2ccc(Oc3ccc(Cl)cc3)cc2)cc1-c1ccccc1C)C(=O)O [Example 1016, N-[4-(2-(4-(4-chlorophenoxy)phenyl)ethen-1-yl)-2-(2-methylphenyl)benzoyl]methionine lithium salt] | inhibition at 0.1 µM (read-out: % inhibition at 0.1 μM (*), Table 6, * = 0.1 μM (footnote), title prints 0.1 mM): 92%
8 | 84 |  | CSCC[C@H](NC(=O)c1ccc(CSc2ncnc3[nH]ncc23)cc1-c1ccccc1C)C(=O)O [Example 746] | 
9 |  |  | C=C[C@@H](CC1CCCCC1)NCc1ccc(C(=O)N[C@@H](CCSC)C(=O)O)c(-c2ccccc2)c1 [Example 664] | % inhibition of farnesyltransferase at 1 × 10^-5 M: 75%
10 |  | 99 | CSCC[C@H](NC(=O)c1ccc(COCc2ccccc2)cc1-c1ccccc1C)C(=O)NS(=O)(=O)c1ccc(C)cc1 [Example 582] | 
11 | 57 |  | CCSC[C@H](CC1CCCCC1)N(Cc1ccc(C(=O)N[C@@H](CCSC)C(=O)O)c(-c2ccccc2C)c1)C(=O)c1ccccc1 [Example 949] | 
12 | 82 |  | CSCC[C@H](NC(=O)c1ccc(CN(CCC23CC4CC(CC(C4)C2)C3)c2ccccc2)cc1-c1ccccc1C)C(=O)O [Example 511] | 
13 |  | 68 | COc1ccccc1CNCc1ccc(C(=O)N[C@@H](CCSC)C(=O)O)c(-c2ccccc2)c1 [Example 650] | 
14 |  |  | CSCC[C@H](NC(=O)c1ccc(-c2cccc(-c3ccccc3)c2)cc1-c1ccccc1C)C(=O)O [Example 787, N-[4-(3-phenylphenyl)-2-(2-methylphenyl)benzoyl]methionine lithium salt] | inhibition at 1 µM: 70%
15 |  |  | CSCC[C@H](NC(=O)c1ccc(CNc2cc(C)ns2)cc1-c1ccccc1)C(=O)O [Example 373] | % inhibition of farnesyltransferase at 1 × 10^-5 M: 76%
16 |  | 22 | CSCC[C@H](NC(=O)c1ccc(COCC2CCCO2)cc1-c1ccccc1)C(=O)O (stereo partly shown) [Example 288] | 

Row | % inhibition of farnesyltransferase at 1 × 10^-7 M [%] | % inhibition of farnesyltransferase at 1 × 10^-6 M [%] | SMILES | further results
17 |  |  | CCSCC(CC1CCCCC1)NCc1cc(-c2ccccc2C)c(C(=O)N[C@@H](CCSC)C(=O)O)cc1F (stereo partly shown) [Example 1134] | % inhibition at 0.01 μM (**) (Table 6, ** = 0.01 μM (footnote), title prints 0.01 mM): 95%
18 |  |  | CSCC[C@H](NC(=O)c1ccc(CO[C@H](CSC(C)(C)C)CC2CCCCC2)cc1-c1ccccc1C)C(=O)O [Example 883] | % inhibition of farnesyltransferase at 1 × 10^-8 M: 91%
19 |  | 96 | CSCC[C@H](NC(=O)c1ccc(CNCCC2CCCCC2)cc1-c1ccccc1C)C(=O)O.O=C(O)C(F)(F)F [Example 607] | 
20 |  | 69 | CSCC[C@H](NC(=O)c1ccc(CNCc2ccccc2)cc1-c1ccccc1)C(=O)O.Cl [Example 936] | 
21 |  |  | CSCC[C@H](NC(=O)c1ccc(/C=C/c2cccc3ccccc23)cc1-c1ccccc1C)C(=O)O [Example 466, N-[4-(2-naphth-1-ylethenyl)-2-(2-methylphenyl)benzoyl]methionine lithium salt] | inhibition at 1 µM: 93%
22 |  | 94 | CSCC[C@H](NC(=O)c1ccc(CN(Cc2ccccc2)Cc2ccccc2)cc1-c1ccccc1C)C(=O)O [Example 512] | 
23 |  |  | CSCC[C@H](NC(=O)c1ccc(CN(C2CC2)C(C)(C)CC2CCCCC2)cc1-c1ccccc1C)C(=O)O [Example 316] | inhibition at 1 µM: 63%
24 |  | 96 | CSCC[C@H](NC(=O)c1ccc(CN(CCc2ccccc2)C(C)C)cc1-c1ccccc1C)C(=O)O [Example 835] | 
25 |  |  | CSCC[C@H](NC(=O)c1ccc(CN(C)C(CC2CCCCC2)CC2CCCCC2)cc1-c1ccccc1C)C(=O)O [Example 907] | % inhibition of farnesyltransferase at 1 × 10^-8 M: 79%
26 | 78 |  | CSCC[C@H](NC(=O)c1ccc(COCc2ccc(-c3ccc(Cl)cc3)o2)cc1-c1ccccc1C)C(=O)NS(C)(=O)=O [Example 818] | 
27 | 93 |  | CSCC[C@H](NC(=O)c1ccc(CSc2nc3ccccc3c(=O)[nH]2)cc1-c1ccccc1C)C(=O)O [Example 745] | 
28 | 91 |  | CSCC[C@H](NC(=O)c1ccc(CN(c2ccccc2)S(=O)(=O)c2ccc(C)cc2)cc1-c1ccccc1C)C(=O)O [Example 770] | 
29 |  | 94 | CSCC[C@H](NC(=O)c1ccc(CN(Cc2ccccc2)Cc2cccc(Oc3ccccc3)c2)cc1-c1ccccc1C)C(=O)O [Example 514] | 
30 |  |  | CSCC[C@H](NC(=O)c1ccc(/C=C/c2ccc3ccccc3c2)cc1-c1ccccc1C)C(=O)O [Example 465, N-[4-(2-naphth-2-ylethenyl)-2-(2-methylphenyl)benzoyl]methionine] | inhibition at 1 µM: 92%
31 |  | 88 | CSCC[C@H](NC(=O)c1ccc(CN(CC(C)C)C(CC2CCCCC2)CC2CCCCC2)cc1-c1ccccc1C)C(=O)O [Example 908] | 
32 |  | 98 | CCS(=O)(=O)C[C@H](CC1CCCCC1)NCc1ccc(C(=O)N[C@@H](CCSC)C(=O)O)c(-c2ccccc2C)c1 [Example 620] | 

Row | SMILES | % inhibition of farnesyltransferase at 1 × 10^-7 M [%] | % inhibition of farnesyltransferase at 1 × 10^-6 M [%] | further results
33 | CSCC[C@H](NC(=O)c1ccc(COCCC2CCCCC2)cc1-c1ccccc1C)C(=O)[O-].[Li+] [Example 594] | 95 |  | 
34 | CSCC[C@H](NC(=O)c1ccc(COCc2ccc(-c3ccc(C=O)cc3)o2)cc1-c1ccccc1C)C(=O)[O-].[Li+] [Example 448] | 92 |  | 
35 | CSCC[C@H](NC(=O)c1ccc(CN(CCC2CCCCC2)C(C)=O)cc1-c1ccccc1C)C(=O)[O-].[Li+] [Example 609] | 95 |  | 
36 | CSCC[C@H](NC(=O)c1ccc(CSCc2ccccc2)cc1-c1ccccc1C)C(=O)[O-].[Li+] [Example 554] |  | 96 | 
37 | CSCC[C@H](NC(=O)c1ccc(CSCCc2ccccc2)cc1-c1ccccc1C)C(=O)[O-].[Li+] [Example 562] | 95 |  | 
38 | CSCC[C@H](NC(=O)c1ccc(COCc2ccc(-c3ccccc3C(F)(F)F)o2)cc1-c1ccccc1C)C(=O)[O-].[Li+] [Example 438] | 90 |  | 
39 | CSCC[C@H](NC(=O)c1ccc(OCCC2CCCCC2)cc1-c1ccccc1C)C(=O)[O-].[Li+] [Example 552] |  | 88 | 
40 | CSCC[C@H](NC(=O)c1ccc(COCCc2ccc(-c3ccc(F)cc3)o2)cc1-c1ccccc1C)C(=O)[O-].[Li+] [Example 535] | 89 |  | 
